Tests used:
Id1 [1] = molecular target: T1, Id1 (Mus musculus, UniProt P20067); test: Electrophoretic mobility shift assay (EMSA): ability of Id1 to antagonize E47 binding to DNA; assay type: biochemical; conditions: comparison between compounds
T1 construct: in the presence or absence of purified full-length Id1; made in house; host or cells: bacteria (Id1: Rosetta 2 (DE3))
Protocol: (§1) Electrophoretic mobility shift assays. To test the activity of compounds identified in the in silico screen, full-length E47 was purified from bacteria and mixed with a P^32 labeled E-box sequence derived from the muscle creatine kinase (MCK) enhancer, BSA, DTT, poly dI-dC, salmon sperm, and HeLa nuclear extract, in the presence or absence of purified full-length Id1. Increasing concentrations of the various test compounds dissolved in DMSO or DMSO alone were added to the reaction mixes for 30 minutes, resolved on a 5% non-denaturing polyacrylamide gel, and autoradiographed. Electrophoretic mobility shift assays (EMSAs) were carried out on whole cell lysates from AGX51-treated cells and the EMSA was performed as described previously (Tournay and Benezra, Mol Cell Biol, 16: 2418-30 (1996)).
Pesce and Benezra, Mol. Cell. Biol., 13, 7874-7880 (1993). An in silico screen of 2,234,000 compounds for crevice binding was performed, yielding 3,000 hits that were pared for drug-like properties. 364 candidates emerged and were tested for their capacity to inhibit the ability of Id1 to antagonize E47 binding to DNA by EMSAs as previously described (Benezra, 1994). […] This anti-Id1 activity was most likely due to the perturbation of the Id1-E47 interaction but other explanations, such as the binding of an Id1-E47 complex to DNA in the presence of compound, are possible. […]

E protein binding = test: EMSA on whole cell lysates from HCT116 cells; assay type: cell-based; conditions: 24 hours treatment
Protocol: as §1
Without being bound by theory, it was hypothesized that loss of Id proteins in response to AGX51 should result in an increase in E protein binding activity assuming little interference of the compound with the E proteins themselves. […] To determine if loss of Id activity precedes Id protein loss, EMSAs were carried out using cell lysates from HCT116 cells treated with AGX51 for one hour.

BT-474 = test: MTT assay, BT-474; assay type: cell-based; design: scale not given here; conditions: BT-474, HER-2 +ve cell line, 24 hours
Text: The 4T1 murine mammary tumor cell line and nine breast cancer cell lines representing the major breast cancer subtypes (ER+, HER2+, and TNBC) including MDA-MB-157, MDA-MB-436, MDA-MB-231, MDA-MB-453, MDA-MB-361, BT-474, SK-BR-3, MCF-7 and T47-D will be grown in RPMI or DMEM (Dulbecco's Modified Eagle Medium) media supplemented with 10% FBS (fetal bovine serum), 1% penicillin-streptomycin and 1% L-Glutamine. Patient derived xenograft cell lines BR7, BR11, and IBT will be established directly from breast cancer bone metastases specimens surgically resected from patients with informed consent. BR7 and BR11 specimens will be obtained from ER positive (HER2 negative and PR negative) metastatic breast cancer patients, while the IBT specimen will be obtained from a metastatic, triple negative breast cancer patient. Fresh tumor tissues will be quickly washed with ice cold PBS and minced into about 1-3 mm pieces in MEM medium (without FBS) using sterile razor blades. […] The cells will be treated with either 100 μM DMSO, AGX51, or a compound of the present technology such as AGX-A. The cell morphology and growth will be monitored daily for 1 week by microscopy for changes in morphology or cell death. […] Absorbance will then measured at 570 nm using a plate reader (Synergy 2, BioTek). […]

ID1 [2] = molecular target: T2, ID1 (Homo sapiens, UniProt P41134); test: Knockdown of Id1 in TFK1 cell cultures; assay type: cell-based; design: endogenous in cells; host or cells: TFK1; conditions: TFK1, FIG. 21
T2 sequence (P41134 1-155): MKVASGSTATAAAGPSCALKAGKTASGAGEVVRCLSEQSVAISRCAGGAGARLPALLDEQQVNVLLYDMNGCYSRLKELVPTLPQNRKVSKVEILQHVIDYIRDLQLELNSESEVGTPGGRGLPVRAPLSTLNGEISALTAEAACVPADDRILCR
Text: Following the methods described herein (see, e.g., Examples 12-13), AGX-A and AGX51 were compared for their ability to mediate Id knockdown in cell cultures. FIG. 21 illustrates side-by-side comparative effects of AGX51 and AGX-A for knockdown of Id1 in TFK1 cell cultures, and FIG. 22 illustrates side-by-side comparative effects of AGX51 and AGX-A for knockdown of Id3 in TFK1 cell cultures.

T1 sequence (P20067 1-148 isoform P20067-2): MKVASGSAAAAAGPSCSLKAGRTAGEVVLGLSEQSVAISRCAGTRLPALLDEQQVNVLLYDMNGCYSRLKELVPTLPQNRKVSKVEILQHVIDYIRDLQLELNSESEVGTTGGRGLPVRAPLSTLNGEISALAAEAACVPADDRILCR

Structure (SMILES) | relative potency in EMSA (Id1 [1]) | E protein binding in cell lysates (E protein binding) | percentage at 60 μM (IC50 NA) (BT-474) | Id1 knockdown potency vs AGX51 (ID1 [2])
CCC(=O)N(CCC(c1ccc2c(c1)OCO2)c1ccccc1OC)Cc1ccccc1 (racemic) [AGX51, N-(3-(benzo[d][1,3]dioxol-5-yl)-3-(2-methoxyphenyl)propyl)-N-benzylpropionamide] | more potent than B | small increase in E protein binding | NA (60 μM = 53%) | –
COc1ccccc1C(CCNCc1ccccc1)c1ccc(OC(C)C)cc1 (stereo not shown) [AGX-A, N-benzyl-3-(4-isopropoxyphenyl)-3-(2-methoxyphenyl)propan-1-anine] | – | – | – | superior anti-Id1 and anti-Id3 potency compared to AGX51
